Assay results as given in US10870651B2, “Inhibitors of cyclin-dependent kinase 7 (CDK7)” (Dana-Farber Cancer Institute, Inc., priority 2014, dated 2020).

Biological target: CDK7 (Homo sapiens (Human), UniProt P50613)
Assay: Inhibition of kinase activity, CDK7
Type: biochemical
Settings: co-factors cyclin H and MNAT1
Procedure: Compounds of the invention were assayed for activity against a variety of different kinases. Exemplary results are presented as calculated IC50 values (Table A1 & A2). In Table A1 and A2 “A” represents a calculated IC50 value of less than 100 nM; “B” represents a calculated IC50 value of greater than or equal to 100 nM and less than 1 μM; and “C” represents a calculated IC50 value of 1 μM or greater. The co-factors used for each kinase in the assays were as follows: CDK7: cyclin H and MNAT1; CDK2: cyclin A; CDK9: cyclin K.

Sequence of CDK7 (P50613 whole entry): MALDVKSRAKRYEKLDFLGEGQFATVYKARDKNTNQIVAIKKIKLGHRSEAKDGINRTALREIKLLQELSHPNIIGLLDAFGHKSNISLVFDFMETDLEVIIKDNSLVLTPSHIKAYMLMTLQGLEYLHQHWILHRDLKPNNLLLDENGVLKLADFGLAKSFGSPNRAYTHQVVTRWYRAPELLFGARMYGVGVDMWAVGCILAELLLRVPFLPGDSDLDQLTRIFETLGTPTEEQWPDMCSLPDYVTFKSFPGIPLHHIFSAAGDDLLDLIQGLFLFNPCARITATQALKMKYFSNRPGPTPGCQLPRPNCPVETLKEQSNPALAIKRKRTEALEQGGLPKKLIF
Sequence of CDK7 (P51946 whole entry partner): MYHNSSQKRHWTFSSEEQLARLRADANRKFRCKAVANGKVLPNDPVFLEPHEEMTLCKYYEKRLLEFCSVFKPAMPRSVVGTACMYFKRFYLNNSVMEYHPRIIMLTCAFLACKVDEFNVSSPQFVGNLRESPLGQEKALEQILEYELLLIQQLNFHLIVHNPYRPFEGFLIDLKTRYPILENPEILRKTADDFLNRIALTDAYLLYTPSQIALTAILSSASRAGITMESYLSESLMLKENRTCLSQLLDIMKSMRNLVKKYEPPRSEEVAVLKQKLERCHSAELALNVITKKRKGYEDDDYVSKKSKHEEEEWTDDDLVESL
Sequence of CDK7 (P51948 whole entry partner): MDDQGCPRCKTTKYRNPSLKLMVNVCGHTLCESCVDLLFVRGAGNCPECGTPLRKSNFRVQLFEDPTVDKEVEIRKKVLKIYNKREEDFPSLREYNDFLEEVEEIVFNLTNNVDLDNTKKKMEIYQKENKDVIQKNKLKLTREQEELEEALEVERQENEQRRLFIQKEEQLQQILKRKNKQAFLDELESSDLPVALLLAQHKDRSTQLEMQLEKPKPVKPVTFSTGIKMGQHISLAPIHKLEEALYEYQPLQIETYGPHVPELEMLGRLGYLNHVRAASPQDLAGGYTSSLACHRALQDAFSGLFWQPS

IC50 | Structure (SMILES)
< 100 nM | C=CC(=O)Nc1cccc(C(=O)Nc2ccc(Nc3n[nH]c4c3CN(C(=O)N[C@H](CN(C)C)c3ccccc3)C4(C)C)cc2)c1 [Compound 103, (S)-3-((4-(3-acrylamidobenzamido)phenyl)amino)-N-(2-(dimethylamino)-1-phenylethyl)-6,6-dimethyl-4,6-dihydropyrrolo[3,4-c]pyrazole-5(1H)-carboxamide]
< 100 nM | C=CC(=O)Nc1cccc(C(=O)Nc2cccc(Nc3n[nH]c4c3CN(C(=O)N[C@H](CN(C)C)c3ccccc3)C4(C)C)c2)c1 [Compound 105, (S)-3-((3-(3-acrylamidobenzamido)phenyl)amino)-N-(2-(dimethylamino)-1-phenylethyl)-6,6-dimethyl-4,6-dihydropyrrolo[3,4-c]pyrazole-5(1H)-carboxamide]
< 100 nM | C=CC(=O)Nc1ccc(C(=O)Nc2cccc(Nc3n[nH]c4c3CN(C(=O)NC(C)CN(C)C)C4(C)C)c2)cc1 (stereo not shown) [Compound 108, 3-((3-(4-acrylamidobenzamido)phenyl)amino)-N-(1-(dimethylamino)propan-2-yl)-6,6-dimethyl-4,6-dihydropyrrolo[3,4-c]pyrazole-5(1H)-carboxamide]
< 100 nM | CN(C)C/C=C/C(=O)Nc1ccc(C(=O)Nc2cccc(Nc3n[nH]c4c3CN(C(=O)N[C@H](CO)c3ccccc3)C4(C)C)c2)cc1 [Compound 109, (S,E)-3-((3-(4-(4-(dimethylamino)but-2-enamido)benzamido)phenyl)amino)-N-(2-hydroxy-1-phenylethyl)-6,6-dimethyl-4,6-dihydropyrrolo[3,4-c]pyrazole-5(1H)-carboxamide]
< 100 nM | C=CC(=O)Nc1cccc(Nc2n[nH]c3c2CN(C(=O)N[C@H](CN(C)C)c2ccccc2)C3(C)C)c1 [Compound 110, (S)-3-((3-acrylamidophenyl)amino)-N-(2-(dimethylamino)-1-phenylethyl)-6,6-dimethyl-4,6-dihydropyrrolo[3,4-c]pyrazole-5(1H)-carboxamide]
100 to 1000 nM | C=CC(=O)Nc1ccc(Nc2n[nH]c3c2CN(C(=O)N[C@H](CN(C)C)c2ccccc2)C3(C)C)cc1 [Compound 111, (S)-3-((4-acrylamidophenyl)amino)-N-(2-(dimethylamino)-1-phenylethyl)-6,6-dimethyl-4,6-dihydropyrrolo[3,4-c]pyrazole-5(1H)-carboxamide]
< 100 nM | C=CC(=O)N1CCC[C@@H](C(=O)Nc2n[nH]c3c2CN(C(=O)N[C@H](CN(C)C)c2ccccc2)C3(C)C)C1 [Compound 113, 3-((R)-1-acryloylpiperidine-3-carboxamido)-N-((S)-2-(dimethylamino)-1-phenylethyl)-6,6-dimethyl-4,6-dihydropyrrolo[3,4-c]pyrazole-5(1H)-carboxamide]
< 100 nM | C=CC(=O)N1CCC[C@H](C(=O)Nc2n[nH]c3c2CN(C(=O)N[C@H](CN(C)C)c2ccccc2)C3(C)C)C1 [Compound 114, 3-((S)-1-acryloylpiperidine-3-carboxamido)-N-((S)-2-(dimethylamino)-1-phenylethyl)-6,6-dimethyl-4,6-dihydropyrrolo[3,4-c]pyrazole-5(1H)-carboxamide]
< 100 nM | C=CC(=O)Nc1ccc(C(=O)N2CCCC(Nc3n[nH]c4c3CN(C(=O)N[C@H](CN(C)C)c3ccccc3)C4(C)C)C2)cc1 (stereo partly drawn) [Compound 115, 3-((1-(4-acrylamidobenzoyl)piperidin-3-yl)amino)-N-((S)-2-(dimethylamino)-1-phenylethyl)-6,6-dimethyl-4,6-dihydropyrrolo[3,4-c]pyrazole-5(1H)-carboxamide]
< 100 nM | C=CC(=O)Nc1ccc(C(=O)N2CCC(Nc3n[nH]c4c3CN(C(=O)N[C@H](CN(C)C)c3ccccc3)C4(C)C)CC2)cc1 [Compound 116, (S)-3-((1-(4-acrylamidobenzoyl)piperidin-4-yl)amino)-N-(2-(dimethylamino)-1-phenylethyl)-6,6-dimethyl-4,6-dihydropyrrolo[3,4-c]pyrazole-5(1H)-carboxamide]
< 100 nM | C=CC(=O)Nc1ccc(C(=O)N[C@H]2CCC[C@@H](Nc3n[nH]c4c3CN(C(=O)N[C@H](CN(C)C)c3ccccc3)C4(C)C)C2)cc1 [Compound 117, 3-(((1R,3S)-3-(4-acrylamidobenzamido)cyclohexyl)amino)-N-((S)-2-(dimethylamino)-1-phenylethyl)-6,6-dimethyl-4,6-dihydropyrrolo[3,4-c]pyrazole-5(1H)-carboxamide]
< 100 nM | C=CC(=O)Nc1ccc(C(=O)N[C@@H]2CCC[C@@H](Nc3n[nH]c4c3CN(C(=O)N[C@H](CN(C)C)c3ccccc3)C4(C)C)C2)cc1 [Compound 118, 3-(((1R,3R)-3-(4-acrylamidobenzamido)cyclohexyl)amino)-N-((S)-2-(dimethylamino)-1-phenylethyl)-6,6-dimethyl-4,6-dihydropyrrolo[3,4-c]pyrazole-5(1H)-carboxamide]
< 100 nM | C=CC(=O)Nc1ccc(C(=O)NC2CCC(Nc3n[nH]c4c3CN(C(=O)N[C@H](CN(C)C)c3ccccc3)C4(C)C)CC2)cc1 (stereo partly drawn) [Compound 119, (S)-3-((4-(4-acrylamidobenzamido)cyclohexyl)amino)-N-(2-(dimethylamino)-1-phenylethyl)-6,6-dimethyl-4,6-dihydropyrrolo[3,4-c]pyrazole-5(1H)-carboxamide]
< 100 nM | C=CC(=O)Nc1cccc(C(=O)Nc2n[nH]c3c2CN(C(=O)N[C@H](CN(C)C)c2ccccc2)C3(C)C)c1 [Compound 120, (S)-3-(3-acrylamidobenzamido)-N-(2-(dimethylamino)-1-phenylethyl)-6,6-dimethyl-4,6-dihydropyrrolo[3,4-c]pyrazole-5(1H)-carboxamide]
< 100 nM | C=CC(=O)N1CCC(C(=O)Nc2n[nH]c3c2CN(C(=O)N[C@H](CN(C)C)c2ccccc2)C3(C)C)CC1 [Compound 123, (S)-3-(1-acryloylpiperidine-4-carboxamido)-N-(2-(dimethylamino)-1-phenylethyl)-6,6-dimethyl-4,6-dihydropyrrolo[3,4-c]pyrazole-5(1H)-carboxamide]
< 100 nM | C=CC(=O)Nc1ccc(C(=O)Nc2n[nH]c3c2CN(C(=O)N[C@H](CN(C)C)c2ccccc2)C3(C)C)cc1 [Compound 214, (S)-3-(4-acrylamidobenzamido)-N-(2-(dimethylamino)-1-phenylethyl)-6,6-dimethyl-4,6-dihydropyrrolo[3,4-c]pyrazole-5(1H)-carboxamide]
< 100 nM | CCC(=O)Nc1ccc(C(=O)Nc2n[nH]c3c2CN(C(=O)N[C@H](CN(C)C)c2ccccc2)C3(C)C)cc1 [Compound 215, (S)-N-(2-(dimethylamino)-1-phenylethyl)-6,6-dimethyl-3-(4-propionamidobenzamido)-4,6-dihydropyrrolo[3,4-c]pyrazole-5(1H)-carboxamide]
< 100 nM | C=CC(=O)Nc1ccc(C(=O)Nc2n[nH]c3c2CN(C(=O)N[C@H](CN(C)C)c2ccccc2)C3(C)C)c(OC)c1 [Compound 216, (S)-3-(4-acrylamido-2-methoxybenzamido)-N-(2-(dimethylamino)-1-phenylethyl)-6,6-dimethyl-4,6-dihydropyrrolo[3,4-c]pyrazole-5(1H)-carboxamide]
< 100 nM | C=CC(=O)Nc1ccc(C(=O)Nc2n[nH]c3c2CN(C(=O)N[C@H](CN(C)C)c2ccccc2)C3(C)C)cc1OC [Compound 217, (S)-3-(4-acrylamido-3-methoxybenzamido)-N-(2-(dimethylamino)-1-phenylethyl)-6,6-dimethyl-4,6-dihydropyrrolo[3,4-c]pyrazole-5(1H)-carboxamide]
< 100 nM | C=CC(=O)N[C@H]1CC[C@H](C(=O)Nc2n[nH]c3c2CN(C(=O)N[C@H](CN(C)C)c2ccccc2)C3(C)C)CC1 [Compound 222, 3-((1r,4S)-4-acrylamidocyclohexane-1-carboxamido)-N-((S)-2-(dimethylamino)-1-phenylethyl)-6,6-dimethyl-4,6-dihydropyrrolo[3,4-c]pyrazole-5(1H)-carboxamide]
< 100 nM | C=CC(=O)N1CCC(Nc2n[nH]c3c2CN(C(=O)N[C@H](CN(C)C)c2ccccc2)C3(C)C)CC1 [Compound 231, (5)-3-((1-acryloylpiperidin-4-yl)amino)-N-(2-(dimethylamino)-1-phenylethyl)-6,6-dimethyl-4,6-dihydropyrrolo[3,4-c]pyrazole-5(1H)-carboxamide]
< 100 nM | C=CC(=O)N1CCCC(Nc2n[nH]c3c2CN(C(=O)N[C@H](CN(C)C)c2ccccc2)C3(C)C)C1 (stereo partly drawn) [Compound 232, 3-((1-acryloylpiperidin-3-yl)amino)-N-((S)-2-(dimethylamino)-1-phenylethyl)-6,6-dimethyl-4,6-dihydropyrrolo[3,4-c]pyrazole-5(1H)-carboxamide]
< 100 nM | C=CC(=O)Nc1ccc(C(=O)Nc2n[nH]c3c2CN(C(=O)N[C@H](CN(C)C)c2ccccc2)C32CC2)cc1 [Compound 233, (S)-3′-(4-acrylamidobenzamido)-N-(2-(dimethylamino)-1-phenylethyl)-1′,4′-dihydro-5′H-spiro[cyclopropane-1,6′-pyrrolo[3,4-c]pyrazole]-5′-carboxamide]
< 100 nM | C=CC(=O)Nc1ccc(C(=O)Nc2n[nH]c3c2CN(C(=O)N[C@H](CN(C)C)c2ccccc2)[C@@H]3C(C)C)cc1 [Compound 234, (R)-3-(4-acrylamidobenzamido)-N-((S)-2-(dimethylamino)-1-phenylethyl)-6-isopropyl-4,6-dihydropyrrolo[3,4-c]pyrazole-5(1H)-carboxamide]
≥ 1000 nM | C=CC(=O)Nc1ccc(C(=O)Nc2n[nH]c3c2CN(C(=O)N[C@H](CN(C)C)c2ccccc2)[C@H]3C(C)C)cc1 [Compound 235, (S)-3-(4-acrylamidobenzamido)-N-((S)-2-(dimethylamino)-1-phenylethyl)-6-isopropyl-4,6-dihydropyrrolo[3,4-c]pyrazole-5(1H)-carboxamide]
